Experiments:
[1] = tested on: Primary Human Peripheral Blood Mononuclear Cells (PBMCs); assay: Inflammatory signals in LPS-treated primary human PBMCs; format: cell-based; details: 100 uM, 24 hours
Description: Human donor blood (8 mL) was collected in sodium citrate CPT tubes and centrifuged at 1,600×g for 20 minutes at room temperature. Buffy coat containing PBMCs was collected and transferred to a 50 mL conical tube containing 30 mL of RPMI-1640 medium at room temperature (supplemented with penicillin-streptomycin). PBMCs samples were centrifuged at 400×g for 10 minutes at 10° C. The pelleted PBMCs were washed twice in 10 ml of RPMI-1640 medium (supplemented with penicillin-streptomycin), then resuspended in RPMI-1640 medium (supplemented with penicillin-streptomycin, fetal bovine serum, and L-Glutamine). PBMCs were filtered through a 70 micron mesh to remove any cellular debris. […] PBMCs in a 96-well plate were rested for 30 minutes in a 37° C., 5% CO2 incubator, then subsequently treated with 10 μl of indicated compound. After 2 hours 10 μL of LPS (O111:B4) 1 mg/mL was added to test wells. After 24 hours of incubation at 37° C., 5% CO2, 100 μL of cell supernatant was collected and transferred to a 96-well plate (non-tissue treated, flat bottom). The plate was centrifuged at 350×g for 5 minutes at room temperature, and then the clear supernatant transferred to a new 96-well plate (non-tissue treated, flat bottom). The remaining cells were tested for viability using CellTiter-Glo® Luminescent Cell Viability Assay (Promega). The supernatant was analyzed for TNFα, IL-6 and […] Systems), using Luminex Immunoassay Technology (MAGPIX System). Cytokine levels of LPS treated DMSO control samples were set to 100%, and compound treated samples were expressed relative to this (Table 3).

neutrophil = assay: Neutrophil chemokine production assay; format: cell-based, human; details: 12 h
Description: A volume 25 mL of human blood was layered over 15 mL of Histopaque®-1077 and centrifuged at 500 g, RT, for 30 min with no break applied to the centrifuge. The PBMC band and Histopaque®-1077 layer were removed leaving behind the bottom red layer which was mixed with 40 mL of 1× red blood cell (RBC) lysis buffer (Sigma-Aldrich) was and split into two 50 mL tubes. The volume for both fractions was brought to 50 mL with RBC lysis buffer, mixed by inversion, and then incubated at RT for 10 min. Solutions were centrifuged at 250 g, for 10 min at RT and the supernatant liquids removed. The reddish pellets were re-suspended in 1 mL of RBC lysis buffer and combined. The cell suspension was incubated for 5 min at RT in RBC lysis buffer. After incubation 45 mL of Hanks Balanced Salt Solution with no calcium, magnesium or phenol red (HBSS−) was added, the cell suspension was spun (250 g for 10 min at RT), and supernatant liquids were removed. The white pellet was re-suspended in 1 mL of HBSS−, and cell counts were determined. The neutrophil cell suspension was brought to a concentration of 1.11e6 cells/mL in RPMI complete (Sigma-Aldrich), and 180 μL of cell suspension was transferred to all wells within a sterile 96-well tissue culture treated plate resulting in 2.0e5 cells/well. […] After incubation, 10 μL of 2 μg/mL LPS solution in RPMI complete was added to each well except for control wells, which received an additional 10 μL of media. Cells were incubated for 12 h (37° C., 5% CO2), after which plates were centrifuged at 250 g, RT, for 5 min and supernatant liquids were obtained and stored at −80° C. until analyzed via Luminex® Multiplex Assay for various chemokines and cytokines. Three data points were acquired from two different blood donors and averaged.

Caco-2 colonocytes = assay: Human Caco-2 barrier integrity assay (TEER); format: cell-based; details: 48 hours
Description: At 70-80% confluency, cells were trypsinized and seeded in 0.4 cm^2 transwell collagen I coated membranes with supplemented DMEM in both apical and basolateral compartments. Cells were seeded at a density of 200,000 cells per well and maintained for 10 days to form a polarized barrier with a TransEpithelial […] After 48 hours, TEER readings were taken again and viability was measured by CellTiter 96® AQueous One Solution Cell Proliferation Assay (Promega). The percent change in TEER over the 48 hours was determined and normalized to the 0.1% DMSO control (Table 6).

AhR = AhR activation in Caco-2 cells through CYP1A1 mRNA expression; details: overnight
Description: Caco-2 cells from American Type Culture Collection (ATCC) were plated in a sterile tissue culture treated 96-well plate (ThermoFisher) at […], and grown overnight at 37° C., 5% CO2 in DMEM complete (Gibco) in order to achieve confluence. After the incubation medium was aspirated off of the Caco-2 monolayers, tissues were then washed with 200 μL of warmed PBS solution, and subsequently 190 μL of pre-warmed growth medium was added to each well. Compounds of interest were diluted at a 20× concentration in growth medium containing 2% DMSO, and 10 μL of compound solutions were added to respective wells in triplicate. Compounds where incubated overnight at 37° C., 5% CO2. 2-(1′H-indole-3′-carbonyl)-thiazole-4-carboxylic acid methyl ester (ITE) was used as the positive control for AhR activation at 1 and 100 μM concentrations. At the end of the incubation, medium was aspirated off of the Caco-2 cells, and the cells washed with 100 μL of cold PBS solution. RNA was extracted via the TaqMan™ Gene Expression Cells-to-CT™ Kit (ThermoFisher) according to the manufacturers protocol. The QuantStudio 6 Flex (Applied Biosciences) was used to analyze mRNA levels of CYP1A1 using GAPDH as the endogenous control. TaqMan™ probe sets for both genes were acquired from ThermoFisher. Samples were run in triplicate and data was analyzed using the QuantStudio software and reported as linear (Table 1) and log 2(ΔΔCT) values. Statistical analysis was performed using a two-tailed t-test comparing CYP1A1 levels in the presence of each individual compound to the vehicle negative control.

naïve CD4+ T cells = assay: Human regulatory T cell differentiation assay; format: cell-based; details: 6 days
Description: Peripheral blood mononuclear cells (PBMCs) from whole blood donated by health volunteers were separated by Ficoll-Paque gradient centrifugation and naïve CD4^+ T cells were subsequently isolated using magnet beads (EasySep™ Human Naïve CD4^+ T Cell Isolation Kit, Cambridge, MA). For regulatory T cell (Treg) differentiation assay, naïve CD4^+ T cells were cultured (1-10×10^4 cells) in CTS OpTmizer medium for 6 days and stimulated with 5 ng/ml TGF-β, 100 U/ml IL-2, and ImmunoCult™ Human […] T Cell Activator; Stemcell #10990) with/without our Compounds. Cell viability was determined using a viability dye (eBioscience Fixable Viability Dye eFluor 780: ThermoFisher 65-0865-14) at 1:500 dilution. The cells were gated for Treg, defined as Live, CD11c^−, CD14^−, CD19^−, CD8^−, CD4^+, CD3^+, CD25^+, FOXP3^+. Percent (%) Tregs were calculated as percentage of CD4^+, CD25^+, FOXP3^+ cells over total CD4 T cells. Statistical analysis was performed with GraphPad Prism Software Using One-Way ANOVA.

CC(O)CC(=O)O (stereo not drawn) [beta-hydroxybutyric acid, β-hydroxybutyric acid]
IL1β % DMSO control [1]: − ((−) >110% DMSO) | IL6 % DMSO control [1]: = ((=) 90%> <110% DMSO) | TNFα % of DMSO control [1]: − ((−) >110% DMSO) | % IL-8 (Vehicle + LPS = 100%) (neutrophil; 200.0 μM): − (− = >90% Vehicle) | % MIP-1α (Vehicle + LPS = 100%) (neutrophil; 200.0 μM): − (− = >90% Vehicle) | % MIP-1β (DMSO + LPS = 100%) (neutrophil; 200.0 μM): + (+ = <90% Vehicle) | % IL-8 (Vehicle + LPS = 100%) (neutrophil; 2000.0 μM): + (+ = <90% Vehicle) | % MIP-1α (Vehicle + LPS = 100%) (neutrophil; 2000.0 μM): ++ (++ = <70%Vehicle) | % MIP-1β (DMSO + LPS = 100%) (neutrophil; 2000.0 μM): + (+ = <90% Vehicle) | % Change in TEER from DMSO (Caco-2 colonocytes; 200 μM + cytokines): + (125%> <150%: +) | % Change in TEER from DMSO (Caco-2 colonocytes; 2 mM + cytokines): − (<125%: −)

CC(O)CCO (stereo not shown) [butanediol, 1,3-butanediol]
IL1β % DMSO control [1]: = ((=) 90%> <110% DMSO) | % IL-8 (Vehicle + LPS = 100%) (neutrophil; 100.0 μM): − (− = >90% Vehicle) | % MIP-1α (Vehicle + LPS = 100%) (neutrophil; 100.0 μM): − (− = >90% Vehicle) | % MIP-1β (DMSO + LPS = 100%) (neutrophil; 100.0 μM): + (+ = <90% Vehicle) | % IL-8 (Vehicle + LPS = 100%) (neutrophil; 500.0 μM): − (− = >90% Vehicle) | % MIP-1α (Vehicle + LPS = 100%) (neutrophil; 500.0 μM): − (− = >90% Vehicle) | % MIP-1β (DMSO + LPS = 100%) (neutrophil; 500.0 μM): + (+ = <90% Vehicle) | Average CYP1A1 mRNA levels (AhR; 500.0 μM): − (- = <2-fold Vehicle)

OCc1c[nH]c2ccccc12 [indole-3-carbinol]
Average CYP1A1 mRNA levels (AhR; 1000.0 μM): + (+ = >2-fold Vehicle)

c1ccc2[nH]ccc2c1 [indole]
Average CYP1A1 mRNA levels (AhR; 1000.0 μM): + (+ = >2-fold Vehicle)

CCC(=O)O [propionate]
IL1β % DMSO control [1]: + ((+) 50%> <90% DMSO) | % IL-8 (Vehicle + LPS = 100%) (neutrophil; 500.0 μM): − (− = >90% Vehicle) | % MIP-1α (Vehicle + LPS = 100%) (neutrophil; 500.0 μM): +++ (+++ = <50% Vehicle) | % MIP-1β (DMSO + LPS = 100%) (neutrophil; 500.0 μM): +++ (+++ = <50% Vehicle) | % IL-8 (Vehicle + LPS = 100%) (neutrophil; 1000.0 μM): ++ (++ = <70%Vehicle) | % MIP-1α (Vehicle + LPS = 100%) (neutrophil; 1000.0 μM): +++ (+++ = <50% Vehicle) | % MIP-1β (DMSO + LPS = 100%) (neutrophil; 1000.0 μM): +++ (+++ = <50% Vehicle) | % IL-8 (Vehicle + LPS = 100%) (neutrophil; 3000.0 μM): +++ (+++ = <50% Vehicle) | % MIP-1α (Vehicle + LPS = 100%) (neutrophil; 3000.0 μM): +++ (+++ = <50% Vehicle) | % MIP-1β (DMSO + LPS = 100%) (neutrophil; 3000.0 μM): +++ (+++ = <50% Vehicle)

O=c1c(O)c(-c2ccc(O)c(O)c2)oc2cc(O)cc(O)c12 [quercetin, reference compound]
IL1β % DMSO control [1]: + ((+) 50%> <90% DMSO) | % IL-8 (Vehicle + LPS = 100%) (neutrophil; 0.1 μM): − (− = >90% Vehicle) | % MIP-1α (Vehicle + LPS = 100%) (neutrophil; 0.1 μM): − (− = >90% Vehicle) | % MIP-1β (DMSO + LPS = 100%) (neutrophil; 0.1 μM): − (− = >90% Vehicle) | % IL-8 (Vehicle + LPS = 100%) (neutrophil; 1.0 μM): − (− = >90% Vehicle) | % MIP-1α (Vehicle + LPS = 100%) (neutrophil; 1.0 μM): − (− = >90% Vehicle) | % MIP-1β (DMSO + LPS = 100%) (neutrophil; 1.0 μM): − (− = >90% Vehicle) | Cell viability % DMSO (naïve CD4+ T cells; 100 nM): = (90%> <110%: =) | Cell viability % DMSO (naïve CD4+ T cells; 1 uM): = (90%> <110%: =)

— patent US12115178B2, “Acylated active agents and methods of their use for the treatment of autoimmune disorders” (Flagship Pioneering Innovations V, Inc., priority 2018, dated 2024)
